Laboratory results as given in ChEMBL document CHEMBL1148873, “Carbonic anhydrase inhibitors: the beta-carbonic anhydrase from Helicobacter pylori is a new target for sulfonamide and sulfamate inhibitors” (Bioorg Med Chem Lett, 2007).

Legend:
[1] = molecular target: Carbonic anhydrase 1 (Homo sapiens) (UniProt P00915)
Description: Inhibition of human carbonic anhydrase 1 by stopped-flow CO2 hydrase assay

[2] = system: Helicobacter pylori
Description: Inhibition of Helicobacter pylori beta carbonic anhydrase by stopped-flow CO2 hydrase assay

[3] = system: Helicobacter pylori; remark: listed apart in the source
Description: Inhibition of Helicobacter pylori alpha carbonic anhydrase by stopped-flow CO2 hydrase assay

[4] = molecular target: Carbonic anhydrase 2 (Homo sapiens) (UniProt P00918)
Description: Inhibition of human carbonic anhydrase 2 by stopped-flow CO2 hydrase assay

Carbonic anhydrase 1 (Homo sapiens), sequence (P00915 2-261 limits assumed): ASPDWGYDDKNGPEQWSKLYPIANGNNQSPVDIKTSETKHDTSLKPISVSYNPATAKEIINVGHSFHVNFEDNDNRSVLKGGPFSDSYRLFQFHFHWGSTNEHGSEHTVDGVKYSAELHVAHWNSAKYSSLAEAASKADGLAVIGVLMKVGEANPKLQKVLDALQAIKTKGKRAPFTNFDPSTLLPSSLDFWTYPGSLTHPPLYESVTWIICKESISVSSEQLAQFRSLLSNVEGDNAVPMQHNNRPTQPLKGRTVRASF

| SMILES | Kinact [1] [µM] | Kinact [2] [nM] | Kinact [3] [nM] | Kinact [4] [nM] |
| --- | --- | --- | --- | --- |
| NS(=O)(=O)c1nnc(-c2ccccc2Cl)s1 | 0.69 | 37 |  |  |
| Nc1ccc(S(=O)(=O)Nc2nnc(S(N)(=O)=O)s2)cc1 |  | 64 | 268 |  |
| NCc1ccc(S(N)(=O)=O)cc1 |  | 2360 | 873 |  |
| Nc1ccc(S(N)(=O)=O)cc1Br |  | 1240 | 452 |  |
| CC(C)(C)c1ccc(C(=O)Nc2ccc(S(N)(=O)=O)cc2)cc1 | 14.2 | 158 | 79 |  |
| NS(=O)(=O)c1ccc(CO)cc1 |  | 236 | 876 |  |
| Nc1ccc(S(=O)(=O)NCCc2ccc(S(N)(=O)=O)cc2)cc1 |  | 71 | 114 |  |
| CC(C)(C)c1ccc(S(=O)(=O)Nc2cccc(S(N)(=O)=O)c2)cc1 | 9.62 | 213 | 318 |  |
| NNc1ccc(S(N)(=O)=O)cc1 | 28 | 8650 |  |  |
| Nc1ccc(S(N)(=O)=O)cc1Cl |  | 1460 | 378 |  |
| CC(C)(C)c1ccc(S(=O)(=O)Nc2ccc(S(N)(=O)=O)cc2)cc1 | 13 | 150 | 60 |  |
| CC(C)(C)c1ccc(S(=O)(=O)Nc2ccccc2S(N)(=O)=O)cc1 | 14.7 | 24800 | 640 | 295 |
| CC(=O)/N=c1/sc(S(N)(=O)=O)nn1C |  | 176 | 225 |  |
| Nc1ccccc1S(N)(=O)=O |  | 16400 | 426 |  |
| CC(C)(C)c1ccc(S(=O)(=O)Nc2nnc(S(N)(=O)=O)s2)cc1 | 0.338 | 24 | 12 |  |
| Nc1ccc(S(N)(=O)=O)cc1F |  | 1360 | 1230 |  |
| Cn1nc(S(N)(=O)=O)sc1=N |  | 768 | 549 |  |
| CC(C)(C)c1ccc(S(=O)(=O)NCc2ccc(S(N)(=O)=O)cc2)cc1 | 12.2 | 96 | 31 | 104 |
| Nc1ccc(S(N)(=O)=O)cc1I | 6 | 1150 | 510 |  |
| Nc1ccc(S(=O)(=O)NCc2ccc(S(N)(=O)=O)cc2)cc1 |  | 87 | 131 |  |
| CC(C)(C)c1ccc(C(=O)Nc2cccc(S(N)(=O)=O)c2)cc1 | 10.8 | 241 | 316 |  |
| Nc1nccc(Nc2ccc(S(N)(=O)=O)cc2)n1 |  | 38 | 84 |  |
| CCN[C@H]1CN(CCCOC)S(=O)(=O)c2sc(S(N)(=O)=O)cc21 |  | 128 | 210 |  |
| Cc1ccc(S(N)(=O)=O)cc1 | 78.5 | 2470 | 430 |  |
| CC(C)(C)c1ccc(C(=O)NCCc2ccc(S(N)(=O)=O)cc2)cc1 | 13.3 | 44 | 62 | 127 |
| CC(C)(C)c1ccc(S(=O)(=O)NCCc2ccc(S(N)(=O)=O)cc2)cc1 | 12 | 45 | 27 | 94 |
| CC(C)(C)c1ccc(C(=O)Nc2nnc(S(N)(=O)=O)s2)cc1 | 0.541 | 28 | 13 |  |
| CC(C)(C)c1ccc(C(=O)Nc2ccccc2S(N)(=O)=O)cc1 | 12.3 | 23500 | 539 |  |
| CC(C)(C)c1ccc(C(=O)NCc2ccc(S(N)(=O)=O)cc2)cc1 | 12.3 | 101 | 539 | 241 |
| NS(=O)(=O)c1ccc(C(=O)O)cc1 |  | 450 | 1050 |  |
